From patent US20230189805A1, “MULTI-SOLVENT INSECTICIDAL COMPOSITIONS INCLUDING SULFOXIMINE” (CLARKE MOSQUITO CONTROL PRODUCTS, INC., priority 2020, published 2023)

Test system: Culex sp. mosquitos
Test: Laboratory test of samples with and without surfactant against Culex sp. mosquitos
Type: in vivo
Experimental: Various amounts of different surfactants were evaluated to determine possible impacts on efficacy. In one set of trials, different amounts of sulfoxaflor were tested with and without a surfactant (Pluronic L92 from BASF).

[1] = sulfoxaflor 0.5 wt.%, surfactant (Pluronic L92) 20 wt.%
[2] = sulfoxaflor 0.5 wt.%, surfactant None
[3] = sulfoxaflor 1 wt.%, surfactant None

Question: For `CC(c1ccc(C(F)(F)F)nc1)S(C)(=O)=NC#N` (centres unmarked) [Sulfoxaflor, sulfoxaflor], which 1-hour knockdown [1] is on record?
Answer: 2%

Question: And the 24 hour mortality [1]?
Answer: 64%

Question: What about the 48 hour mortality [1] of the same compound?
Answer: 92%

Question: What about the 1-hour knockdown [2] of the same compound?
Answer: 0%

Question: What about the 24 hour mortality [2] of the same compound?
Answer: 27%

Question: What about the 48 hour mortality [2] of the same compound?
Answer: 76%

Question: What about the 72 hour mortality [2] of the same compound?
Answer: 86%

Question: What about the 1-hour knockdown [3] of the same compound?
Answer: 18%

Question: What about the 24 hour mortality [3] of the same compound?
Answer: 62%

Question: And the 48 hour mortality [3]?
Answer: 94%

Question: What about the 72 hour mortality [3] of the same compound?
Answer: 98%
